Where a name gives a salt, the structure may show the parent alone. Read-outs that look alike come from different tables or passages of the source.
Experiments:
NRC-03-nhCoV = test: microbe, parasite or virus in culture; assay type: cell-based, SARS-CoV-2
in vitro = settings: African green monkey, CC50 (Vero-E6)
[1] = Severe acute respiratory syndrome coronavirus 2, Vero C1008, 72 h, Vero-E6 cells, 72 h, crystal violet, reduction of virus-induced CPE by 50%, read-out: IC50 (NRC-03-nhCoV)
[2] = half maximal cytotoxic concentration, MTT assay, Vero-E6 cells
[3] = read-out: CC50 (Vero-E6), half maximal cytotoxic concentration, MTT assay, Vero-E6 cells
[4] = Vero-E6 cells, 72 h, crystal violet, reduction of virus-induced CPE by 50%, read-out: IC50 (NRC-03-nhCoV)
[5] = Severe acute respiratory syndrome coronavirus 2, Vero C1008, Vero-E6 cells, 72 h, crystal violet, reduction of virus-induced CPE by 50%, read-out: IC50 (NRC-03-nhCoV)
[6] = Severe acute respiratory syndrome coronavirus 2, Vero C1008, negative log of the IC50 value against SARS-CoV-2, read-out: pIC50 (converted)

Row | Compound | IC50 (NRC-03-nhCoV; [1]) [µM] | CC50 (in vitro; [2]) [µM] | also measured
1 | CC(=O)Oc1ccccc1C(=O)O [Acetyl Salicylic acid “Aspirin”, Acetyl Salicylic acid] | 12.2 | 1260 | –
2 | NCC[C@H](O)C(=O)N[C@@H]1C[C@H](N)[C@@H](O[C@H]2O[C@H](CN)[C@@H](O)[C@H](O)[C@H]2O)[C@H](O)[C@H]1O[C@H]1O[C@H](CO)[C@@H](O)[C@H](N)[C@H]1O [Amikacin sulphate] | – | – | CC50 (Vero-E6 cells; [3]): 2460 µM; IC50 (NRC-03-nhCoV; [4]): 16.8 µM
3 | CC1(C)S[C@@H]2[C@H](NC(=O)[C@H](N)c3ccc(O)cc3)C(=O)N2[C@H]1C(=O)O [Amoxicillin] | 16.1 | 615 | –
4 | CC1(C)S[C@@H]2[C@H](NC(=O)Cc3ccccc3)C(=O)N2[C@H]1C(=O)O [Benzathine penicillin] | – | – | CC50 (Vero-E6 cells; [3]): 728 µM; IC50 (NRC-03-nhCoV; [4]): 15.8 µM
5 | CCN1CCN(C(=O)N[C@@H](C(=O)N[C@@H]2C(=O)N3C(C(=O)O)=C(CSc4nnnn4C)CS[C@H]23)c2ccc(O)cc2)C(=O)C1=O [Cefoperazone] | 12.4 | 69 | –
6 | CO/N=C(\C(=O)N[C@@H]1C(=O)N2C(C(=O)O)=C(COC(C)=O)CS[C@H]12)c1csc(N)n1 [Cefotaxime] | 42.7 | 3160 | –
7 | CC(C)(O/N=C(\C(=O)N[C@@H]1C(=O)N2C(C(=O)[O-])=C(C[n+]3ccccc3)CS[C@H]12)c1csc(N)n1)C(=O)O [Ceftazidime] | 46.1 | 5550 | –
8 | CO/N=C(\C(=O)N[C@@H]1C(=O)N2C(C(=O)O)=C(CSc3nc(=O)c(=O)[nH]n3C)CS[C@H]12)c1csc(N)n1 [Ceftriaxone] | – | 446 | IC50 (NRC-03-nhCoV; [5]): 16.1 µM
9 | Cc1ccc(-c2cc(C(F)(F)F)nn2-c2ccc(S(N)(=O)=O)cc2)cc1 [Celecoxib] | 13 | 140 | IC50 (NRC-03-nhCoV; [6]): 12.9 µM
10 | CC1=C(C(=O)O)N2C(=O)[C@@H](NC(=O)[C@H](N)c3ccccc3)[C@H]2SC1 [Cephalexin] | 13.2 | – | –
11 | O=C(N[C@H](CO)[C@H](O)c1ccc([N+](=O)[O-])cc1)C(Cl)Cl [Chloramphenicol] | 16.9 | 33.9 | CC50 (Vero-E6 cells; [3]): 33.9 µM
12 | CN(C)CCC(c1ccc(Cl)cc1)c1ccccn1 (stereo not drawn) [Chlorpheniramine maleate] | 3.6 | 466 | –
13 | CC(C)C(=O)OCC(=O)[C@@]12O[C@H](C3CCCCC3)O[C@@H]1C[C@H]1[C@@H]3CCC4=CC(=O)C=C[C@]4(C)[C@H]3[C@@H](O)C[C@@]12C [Ciclesonide] | 4.2 | 120 | –
14 | O=C(O)c1cn(C2CC2)c2cc(N3CCNCC3)c(F)cc2c1=O [Ciprofloxacin] | 61.6 | – | –
15 | CCC[C@@H]1C[C@@H](C(=O)N[C@@H]([C@H]2O[C@H](SC)[C@H](O)[C@@H](O)[C@H]2O)[C@H](C)Cl)N(C)C1 [Clindamycin] | 15.7 | – | IC50 (NRC-03-nhCoV; [4]): 15.7 µM
16 | C[C@@H]1C[C@H]2[C@@H]3CCC4=CC(=O)C=C[C@]4(C)[C@@]3(F)[C@@H](O)C[C@]2(C)[C@@]1(O)C(=O)CO [Dexamethasone] | 123 | 1900 | –
17 | O=C(O)Cc1ccccc1Nc1c(Cl)cccc1Cl [Diclofenac sodium] | 96.2 | 138 | –
18 | C[C@H]1c2cccc(O)c2C(=O)C2=C(O)[C@]3(O)C(=O)C(C(N)=O)=C(O)[C@@H](N(C)C)[C@@H]3[C@@H](O)[C@@H]21 [Doxycycline] | 5.1 | 636 | IC50 (NRC-03-nhCoV; [6]): 5.13 µM
19 | Cc1onc(-c2c(F)cccc2Cl)c1C(=O)N[C@@H]1C(=O)N2[C@@H]1SC(C)(C)[C@@H]2C(=O)O [Flucloxacillin] | 158 | 966 | –
20 | CCC(=O)O[C@]1(C(=O)SCF)[C@H](C)C[C@H]2[C@@H]3C[C@H](F)C4=CC(=O)C=C[C@]4(C)[C@@]3(F)[C@@H](O)C[C@@]21C [Fluticasone Propionate] | 1.71 | 32 | –

Row | Compound | IC50 (NRC-03-nhCoV; [1]) [µM] | CC50 (in vitro; [2]) [µM] | also measured
21 | COc1ccc(C[C@@H](C)NC[C@H](O)c2ccc(O)c(NC=O)c2)cc1 [Formoterol Fumarate] | – | – | CC50 (Vero-E6 cells): 569 µM; IC50 (NRC-03-nhCoV; [4]): 71.8 µM
22 | C[C@]12CCC(=O)C=C1CC[C@@H]1[C@@H]2[C@@H](O)C[C@@]2(C)[C@H]1CC[C@]2(O)C(=O)CO [Hydrocortisone] | 7.1 | 614 | –
23 | CC(C)Cc1ccc(C(C)C(=O)O)cc1 (stereo not drawn) [Ibuprofen] | 88.7 | 1170 | –
24 | COc1ccc2c(c1)c(CC(=O)O)c(C)n2C(=O)c1ccc(Cl)cc1 [Indomethacin] | 8.51 | 672 | –
25 | O=C(c1ccccc1)c1ccc2n1CCC2C(=O)O (stereo not drawn) [Ketorolac Tromethamine] | 153 | 2040 | –
26 | C[C@H]1COc2c(N3CCN(C)CC3)c(F)cc3c(=O)c(C(=O)O)cn1c23 [Levofloxacin] | 13.8 | 2160 | –
27 | CC(=O)NC[C@H]1CN(c2ccc(N3CCOCC3)c(F)c2)C(=O)O1 [Linezolid] | 16.3 | 816 | –
28 | Cc1cnc(NC(=O)C2=C(O)c3ccccc3S(=O)(=O)N2C)s1 [Meloxicam] | 12.4 | 262 | –
29 | Cc1c(N(C)CS(=O)(=O)O)c(=O)n(-c2ccccc2)n1C [Metamizole sodium] | – | – | CC50 (Vero-E6 cells; [3]): 948 µM; IC50 (NRC-03-nhCoV; [4]): 15 µM
30 | C[C@H]1C[C@@H]2[C@H]([C@@H](O)C[C@@]3(C)[C@H]2CC[C@]3(O)C(=O)CO)[C@@]2(C)C=CC(=O)C=C12 [Methylprednisolone] | 90.4 | 3340 | –
31 | CC(C)(O)c1ccccc1CC[C@@H](SCC1(CC(=O)O)CC1)c1cccc(/C=C/c2ccc3ccc(Cl)cc3n2)c1 [Montelukast] | – | – | CC50 (in vitro): 9.86 µM
32 | COc1c(N2C[C@@H]3CCCN[C@@H]3C2)c(F)cc2c(=O)c(C(=O)O)cn(C3CC3)c12 [Moxifloxacin] | 12.2 | 2240 | –
33 | c1ccc2c(CC3=NCCN3)cccc2c1 [Naphazoline] | 9.52 | 636 | –
34 | O=C1CN(/N=C/c2ccc([N+](=O)[O-])o2)C(=O)N1 [Nitrofurantoin] | – | – | IC50 (NRC-03-nhCoV; Severe acute respiratory syndrome coronavirus 2, Vero C1008, 72 h, read-out: IC50 (NRC-03-nhCoV)): 16.2 µM; CC50 (in vitro): 599 µM
35 | C[C@@H]1[C@H](O)[C@@H](C)/C=C/C=C/CC/C=C/C=C/C=C/C=C/C(O[C@H]2O[C@H](C)[C@@H](O)[C@H](N)[C@@H]2O)CC2O[C@](O)(CC(O)C(O)CCC(O)CC(O)CC(O)CC(=O)O[C@H]1C)CC(O)C2C(=O)O (stereo partly drawn) [Nystatin] | – | – | CC50 (Vero-E6 cells; [3]): 183 µM; IC50 (NRC-03-nhCoV; [4]): 161 µM
36 | CC(=O)Nc1ccc(O)cc1 [Paracetamol] | – | 4980 | –
37 | CN1C(C(=O)Nc2ccccn2)=C(O)c2ccccc2S1(=O)=O [Piroxicam] | 8.21 | 1800 | IC50 (NRC-03-nhCoV; [6]): 8.13 µM
38 | OCc1cc(C(O)CNCCCCCCOCCCCc2ccccc2)ccc1O (stereo not drawn) [Salmeterol] | – | 4.1 | IC50 (NRC-03-nhCoV; [5]): 1.5 µM
39 | Neomycin | – | – | CC50 (Vero-E6 cells; [3]): 833 µM; IC50 (NRC-03-nhCoV; [4]): 18.1 µM

From publication PMC7761982, “FDA-Approved Drugs with Potent In Vitro Antiviral Activity against Severe Acute Respiratory Syndrome Coronavirus 2” (Pharmaceuticals, 2020)
